Among the data in BindingDB's records for patent US9328118 (Astellas Pharma Inc, 2016) are IC50 values, retold here.

By IC50 is commonly meant the concentration needed to halve the response being measured.

This assay addresses Cathepsin S (Homo sapiens, UniProt P25774). Put plainly: Inhibition Assay. How it is done: 5 μL of a human cathepsin S enzyme (R&D1183-CY-010) was added to a 96-well plate so as to be 20 ng/well.

Sequence of Cathepsin S (P25774 whole entry): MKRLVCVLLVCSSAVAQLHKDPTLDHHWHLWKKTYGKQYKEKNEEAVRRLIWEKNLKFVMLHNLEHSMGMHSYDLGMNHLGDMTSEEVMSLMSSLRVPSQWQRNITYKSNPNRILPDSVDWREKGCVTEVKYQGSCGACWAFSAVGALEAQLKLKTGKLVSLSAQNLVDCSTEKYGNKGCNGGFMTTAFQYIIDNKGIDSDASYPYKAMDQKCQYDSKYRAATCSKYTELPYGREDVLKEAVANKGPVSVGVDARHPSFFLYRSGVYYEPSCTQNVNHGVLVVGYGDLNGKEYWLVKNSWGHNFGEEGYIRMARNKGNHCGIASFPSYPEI

Take `CN(C)C(=O)CN1CCC(CCOc2ccc(-c3nc(C#N)nc4c3ncn4C)cc2C(F)(F)F)CC1` [US9328118, 72]: the IC50 is 1.6 nM.
